Experimental data published in patent US6624310B1, “Epothilone minor constituents” (Gesellschaft fuer Biotechnologische Forschung, mbH (GBF), priority 1998, dated 2003).
Values after ≈ are worked out from the molar mass of the structure shown.

The compounds below were run on mouse fibroblasts (L929) (assay: Activity against mouse fibroblasts (L929)). Details: not given.
Format: cell-based

Compound | Activity against mouse fibroblasts (L929, IC 50/ng/ml)
C/C(=C\c1csc(CO)n1)[C@@H]1C[C@@H]2O[C@]2(C)CCC[C@H](C)[C@H](O)[C@@H](C)C(=O)C(C)(C)[C@@H](O)CC(=O)O1 [Compound 4, Epothilone F, reference compound] | (4) 1.5 ng/ml

Same assay, conditions: L929 mouse fibroblasts

Compound | Activity against mouse fibroblasts (L929, IC 50/ng/ml)
C/C(=C\c1csc(C)n1)[C@@H]1C/C=C/CCC[C@H](C)[C@H](O)[C@@H](C)C(=O)[C@@H](C)[C@@H](O)CC(=O)O1 (relative stereo) [Compound 28, trans-Epothilone C1] | (28) 400 ng/ml
C/C(=C\c1csc(C)n1)[C@@H]1C/C=C/CCC[C@H](C)[C@H](O)[C@@H](C)C(=O)[C@H](C)[C@@H](O)CC(=O)O1 (relative stereo) [Compound 29, trans-Epothilone C2] | (29) 80 ng/ml
C/C(=C\c1csc(C)n1)[C@@H]1C[C@@H]2O[C@@H]2CCC[C@H](C)[C@H](O)[C@@H](C)C(=O)C(C)(C)[C@@H](O)CC(=O)O1 [Compound 1, Epothilone A, reference compound] | (1) 4 ng/ml
C/C(=C\c1csc(C)n1)[C@@H]1C[C@@H]2O[C@]2(C)CCC[C@H](C)[C@H](O)[C@@H](C)C(=O)C(C)(C)[C@@H](O)CC(=O)O1 [Compound 2, Epothilone B, reference compound] | (2) 1-2 ng/ml
C/C(=C\c1csc(CO)n1)[C@@H]1C[C@@H]2O[C@@H]2CCC[C@H](C)[C@H](O)[C@@H](C)C(=O)C(C)(C)[C@@H](O)CC(=O)O1 [Compound 3, Epothilone E, reference compound] | (3) 10 ng/ml
C/C(=C\c1csc(C)n1)[C@@H]1C[C@@H]2O[C@@H]2CCC[C@H](C)[C@H](O)[C@@H](C)C(=O)[C@H](C)[C@@H](O)CC(=O)O1 [Compound 5, Epothilone A1] | (5) 20 ng/ml
C/C(=C\c1csc(C)n1)[C@@H]1C[C@@H]2O[C@@H]2CCC[C@H](C)[C@H](O)[C@@H](C)C(=O)[C@@H](C)[C@@H](O)CC(=O)O1 [Compound 6, Epothilone A2] | (6) 7 ng/ml
Cc1nc(/C=C/[C@@H]2C[C@@H]3O[C@@H]3CCC[C@H](C)[C@H](O)[C@@H](C)C(=O)C(C)(C)[C@@H](O)CC(=O)O2)cs1 [Compound 7, Epothilone A8] | (7) 20 ng/ml
Cc1nc(/C=C(\CO)[C@@H]2C[C@@H]3O[C@@H]3CCC[C@H](C)[C@H](O)[C@@H](C)C(=O)C(C)(C)[C@@H](O)CC(=O)O2)cs1 [Compound 8, Epothilone A9] | (8) 100 ng/ml
C/C(=C\c1coc(C)n1)[C@@H]1C[C@@H]2O[C@]2(C)CCC[C@H](C)[C@H](O)[C@@H](C)C(=O)C(C)(C)[C@@H](O)CC(=O)O1 [Compound 11, Epothilone G2] | (11) 1 ng/ml
C/C(=C\c1coc(C)n1)[C@@H]1C/C=C\CCC[C@H](C)[C@H](O)[C@@H](C)C(=O)C(C)(C)[C@@H](O)CC(=O)O1 [Compound 12, Epothilone H1] | (12) 120 ng/ml
C/C1=C/C[C@@H](/C(C)=C/c2coc(C)n2)OC(=O)C[C@H](O)C(C)(C)C(=O)[C@H](C)[C@@H](O)[C@@H](C)CCC1 [Compound 13, Epothilone H2] | (13) 11 ng/ml
C/C(=C\c1csc(C)n1)[C@@H]1C/C=C\CCC[C@H](C)[C@H](O)[C@@H](C)C(=O)C(C)(C)[C@@H](O)CC(=O)O1 [Compound 14, Epothilone C, reference compound] | (14) 50-100 ng/ml
C/C1=C/C[C@@H](/C(C)=C/c2csc(C)n2)OC(=O)C[C@H](O)C(C)(C)C(=O)[C@H](C)[C@@H](O)[C@@H](C)CCC1 [Compound 15, Epothilone D, reference compound] | (15) 20 ng/ml
C/C(=C\c1csc(C)n1)[C@@H]1C/C=C\CCC[C@H](C)[C@H](O)[C@@H](C)C(=O)[C@H](C)[C@@H](O)CC(=O)O1 [Compound 16, Epothilone C1] | (16) 200 ng/ml
C/C1=C/C[C@@H](/C(C)=C/c2csc(C)n2)OC(=O)C[C@H](O)[C@@H](C)C(=O)[C@H](C)[C@@H](O)[C@@H](C)CCC1 [Compound 17, Epothilone D1] | (17) 20 ng/ml
C/C1=C/C[C@@H](/C(C)=C/c2csc(C)n2)OC(=O)C[C@H](O)[C@H](C)C(=O)[C@H](C)[C@@H](O)[C@@H](C)CCC1 [Compound 19, Epothilone D2] | (19) 12 ng/ml
C/C(=C\c1csc(C)n1)[C@@H]1C/C=C\CCC[C@H](C)[C@H](O)CC(=O)C(C)(C)[C@@H](O)CC(=O)O1 [Compound 20, Epothilone C3] | (20) 1500 ng/ml
C/C(=C\c1csc(C)n1)[C@@H]1C/C=C\CCCC[C@H](O)[C@@H](C)C(=O)C(C)(C)[C@@H](O)CC(=O)O1 [Compound 21, Epothilone C4] | (21) 800 ng/ml
C/C(=C\c1csc(C)n1)[C@@H]1C/C=C\CC/C=C(\C)[C@H](O)[C@@H](C)C(=O)C(C)(C)[C@@H](O)CC(=O)O1 [Compound 22, Epothilone C5] | (22) 1500 ng/ml
Cc1nc(/C=C/[C@@H]2C/C=C\CCC[C@H](C)[C@H](O)[C@@H](C)C(=O)C(C)(C)[C@@H](O)CC(=O)O2)cs1 [Compound 26, Epothilone C8] | (26) 250 ng/ml
Cc1nc(/C=C(\CO)[C@@H]2C/C=C\CCC[C@H](C)[C@H](O)[C@@H](C)C(=O)C(C)(C)[C@@H](O)CC(=O)O2)cs1 [Compound 27, Epothilone C9] | (27) 200 ng/ml
Epothilone D5 [Compound 23] | (23) 200 ng/ml

Same assay, conditions: L929 mouse fibroblasts; read-out: Activity against mouse fibroblasts (L929, IC 50/ng/ml)

Compound | IC50 [ng/mL]
CCc1nc(/C=C(\C)[C@@H]2C[C@@H]3O[C@]3(C)CCC[C@H](C)[C@H](O)[C@@H](C)C(=O)C(C)(C)[C@@H](O)CC(=O)O2)cs1 [Compound 9, Epothilone B10] | 1.5 (≈ 0.00288 µM)
C/C(=C\c1csc(C)n1)[C@@H]1C/C=C\C=C\C[C@H](C)[C@H](O)[C@@H](C)C(=O)C(C)(C)[C@@H](O)CC(=O)O1 [Compound 24, Epothilone C6] | 120 (≈ 0.252 µM)
C/C1=C/C[C@@H](/C(C)=C/c2csc(C)n2)OC(=O)C[C@H](O)C(C)C(=O)C(C)CCC1 (stereo partly shown) [Compound 36, Epothilone K] | 180 (≈ 0.429 µM)
C/C(=C\c1csc(C)n1)[C@@H](O)C/C=C\CCC[C@H](C)[C@H](O)[C@@H](C)C(=O)C(C)C [Compound 37] | 50 (≈ 0.123 µM)
